In patent US11090355B2, “Compositions and methods for the treatment of neurodamage” (BIOINCEPT, LLC, priority 2015, dated 2021):
Marks after values point to notes of the source that are not given here.

Legend:
PDI = PDI (Homo sapiens, UniProt P07237); test: binding to PDI, sPIF compared to scrambled PIF
Source text: (FIG. 2). […] (FIG. 3). […] (FIG. 4). […] Thus dependent on the target Kv1.3 or IDE the mutated PIF-1 can have a target-specific effect which can also translate to diverse biological activity.

EAE = test: PLP139-151 induced EAE, episodic treatment, paralysis scores; conditions: for MCE (mean clinical score at end) / MCS (mean clinical score) / PP (mean peak paralysis score): short term

PDI, sequence (P07237 18-508, species assumed): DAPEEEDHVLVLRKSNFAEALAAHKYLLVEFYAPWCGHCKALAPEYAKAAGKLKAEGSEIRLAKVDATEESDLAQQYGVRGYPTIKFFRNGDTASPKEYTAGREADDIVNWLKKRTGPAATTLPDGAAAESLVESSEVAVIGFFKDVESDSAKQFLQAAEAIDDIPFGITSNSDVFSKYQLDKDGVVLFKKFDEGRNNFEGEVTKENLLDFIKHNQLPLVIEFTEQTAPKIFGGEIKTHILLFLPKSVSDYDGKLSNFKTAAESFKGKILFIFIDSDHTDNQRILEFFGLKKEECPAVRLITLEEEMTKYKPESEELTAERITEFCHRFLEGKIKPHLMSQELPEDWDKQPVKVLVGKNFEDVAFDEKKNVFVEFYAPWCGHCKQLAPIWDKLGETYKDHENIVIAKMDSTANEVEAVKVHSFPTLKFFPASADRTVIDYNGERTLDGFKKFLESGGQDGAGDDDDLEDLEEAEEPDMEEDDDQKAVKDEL

Substance | interaction with PDI target (PDI) | total recovery from paraplegia (stage 4/5) (EAE; episodic treatment) | mice disease free at the end of the study (EAE; long-term, day 50) | mice that died (EAE; long-term, day 50) | mice that died (EAE; medium term) | paralysis score (EAE; medium term) | mice with paralysis reversed / disease free (EAE; medium term, day 41) | mice free of paralysis at the end of the first remission (EAE; short term study) | MCE (mean clinical score at end) (EAE; Experiment 1) | MCS (mean clinical score) (EAE; Experiment 1) | PP (mean peak paralysis score) (EAE; Experiment 1) | MCE (mean clinical score at end) (EAE; Experiment 2) | MCS (mean clinical score) (EAE; Experiment 2) | PP (mean peak paralysis score) (EAE; Experiment 2)
GRVDPSNKSMPKDIA (scrPIF-1 (15)) [scrambled PIF] | greatly reduced | – | – | – | – | – | – | – | – | – | – | – | – | –
Glatiramer acetate [GA] | – | 12.5% | 1/9 | three | one | increased | 1/7 | none | 1.3 +/− 0.4 | 1.58 +/− 0.15 | 2.4 +/− 0.4 | 0.8 +/− 0.2* | 1.4 +/− 0.27 | 2.5 +/− 0.4
